Measurements as given in US20120135923A1, “Use of Melanocortins to Treat Dyslipidemia” (IPSEN PHARMA, S.A.S., priority 2009, published 2012).
Read-outs that look alike come from different tables or passages of the source. Bridge positions count the residues as written; N and C are the ends. Square brackets hold non-standard residues; d marks the D form. Peptide text beside a SMILES is read from it. Bta = N[C@@H](Cc1csc2ccccc12)C(=O)O; Pen = CC(C)(S)[C@H](N)C(=O)O; Nle = CCCC[C@H](N)C(=O)O; Ava = NCCCCC(=O)O; GABA = NCCCC(=O)O

Tests used:
[1] = biological target: T1, hMC5-R (Homo sapiens, UniProt P33032); assay: Radioligand binding assay, [125I]-NDP-α-MSH competition, CHO-K1 membranes
T1 construct: expressed in transfected cells; host or cells: CHO-K1
T1 sequence (P33032 whole entry): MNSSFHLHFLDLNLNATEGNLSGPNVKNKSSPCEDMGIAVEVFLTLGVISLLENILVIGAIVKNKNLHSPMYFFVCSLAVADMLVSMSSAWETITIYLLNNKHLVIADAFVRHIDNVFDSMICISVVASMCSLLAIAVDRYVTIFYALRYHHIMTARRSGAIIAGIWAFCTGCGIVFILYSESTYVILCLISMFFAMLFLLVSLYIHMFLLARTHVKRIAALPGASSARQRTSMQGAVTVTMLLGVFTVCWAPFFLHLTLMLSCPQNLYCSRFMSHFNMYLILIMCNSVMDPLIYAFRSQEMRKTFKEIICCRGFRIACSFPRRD
Description: Cellular membranes used for the in vitro receptor binding assays were obtained from transgenic CHO-K1 cells stably expressing hMC-R receptor subtypes 1, 3, 4 or 5. […] The pellets were resuspended in the same buffer and centrifuged at 50,000 g for 10 minutes at approximately 4° C. The washed pellets containing the cellular membranes were stored at approximately −80° C.
Cell membranes (1-10 μg protein/well) prepared as described above were incubated in 50 mM Tris-HCl at pH 7.4 containing 0.2% bovine serum albumin (BSA), 5 mM MgCl2, 1 mM CaCl2 and 0.1 mg/mL bacitracin, with increasing concentrations of the test compound and 0.1-0.3 nM [^25I]-NDP-α-MSH for approximately 90-120 minutes at approximately 37° C. […] Filters were washed three times with 50 mM Tris-HCl at pH 7.4 at a temperature of approximately 0-4° C. and then assayed for radioactivity using a Packard Topcount® scintillation counter. Binding data were analyzed by computer-assisted non-linear regression analysis (XL fit; IDBS).

[2] = biological target: T1, hMC5-R; assay: cyclic AMP bioassay (ECL) in CHO-K1 cells; type: cell-based
[3] = biological target: T2, hMC1-R (Homo sapiens, UniProt Q01726); assay: cyclic AMP bioassay (ECL) in CHO-K1 cells; type: cell-based
T2 construct: expressed in transfected cells; host or cells: CHO-K1
T2 sequence (Q01726 whole entry): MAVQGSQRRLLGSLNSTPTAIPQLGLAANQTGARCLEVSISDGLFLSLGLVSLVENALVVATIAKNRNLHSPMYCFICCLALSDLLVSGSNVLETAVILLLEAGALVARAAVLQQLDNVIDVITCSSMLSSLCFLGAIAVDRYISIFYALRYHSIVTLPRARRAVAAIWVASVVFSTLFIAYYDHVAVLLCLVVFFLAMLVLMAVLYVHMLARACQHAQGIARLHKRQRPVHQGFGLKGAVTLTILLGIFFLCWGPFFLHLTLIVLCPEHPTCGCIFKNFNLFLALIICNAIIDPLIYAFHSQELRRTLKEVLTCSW
Description: Intracellular cyclic AMP (cAMP) levels were determined by an electrochemiluminescence (ECL) assay (Meso Scale Discovery®, Gaithersburg, Md.; referred to hereinafter as MSD). […] Transgenic CHO-K1 cells stably expressing hMC receptor subtypes 1, 3, 4 or 5 were dispensed at a density of approximately 7,000 cells/well in 384-well Multi-Array®plates (MSD) containing integrated carbon electrodes and coated with anti-cAMP antibody. Increasing concentrations of the test compounds were added and the cells were incubated for approximately 40 minutes at approximately 37° C. […] At the end of the second incubation period read buffer (Tris-buffered solution containing an ECL co-reactant and Triton X-100 at ph 7.8) was added and the cAMP levels in the cell lysates were immediately determined by ECL detection with a Sector Imager 6000 Reader® (MSD). Data were analyzed using a computer-assisted non-linear regression analysis (XL fit; IDBS) and reported as either an EC50 value or a Kb value.
The Kb value reflects the potency of an antagonist and is determined by Schild analysis. In brief, concentration-response curves of an agonist are carried out in the presence of increasing concentrations of an antagonist. […] It is calculated by extrapolating the line on a Schild plot to zero on the y-axis.

[4] = biological target: T3, hMC3-R (Homo sapiens, UniProt P41968); assay: cyclic AMP bioassay (ECL) in CHO-K1 cells; type: cell-based
T3 construct: expressed in transfected cells; host or cells: CHO-K1
T3 sequence (P41968 whole entry): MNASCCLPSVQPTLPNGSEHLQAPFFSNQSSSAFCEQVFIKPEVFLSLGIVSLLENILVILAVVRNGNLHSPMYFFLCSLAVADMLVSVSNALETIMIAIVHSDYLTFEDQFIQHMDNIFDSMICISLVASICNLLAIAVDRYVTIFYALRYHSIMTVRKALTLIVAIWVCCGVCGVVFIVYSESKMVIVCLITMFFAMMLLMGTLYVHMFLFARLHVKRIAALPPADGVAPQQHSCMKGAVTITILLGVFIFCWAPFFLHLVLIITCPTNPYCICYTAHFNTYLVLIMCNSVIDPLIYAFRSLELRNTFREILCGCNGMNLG

[5] = biological target: T4, hMC4-R (Homo sapiens, UniProt P32245); assay: cyclic AMP bioassay (ECL) in CHO-K1 cells; type: cell-based
T4 construct: expressed in transfected cells; host or cells: CHO-K1
T4 sequence (P32245 whole entry): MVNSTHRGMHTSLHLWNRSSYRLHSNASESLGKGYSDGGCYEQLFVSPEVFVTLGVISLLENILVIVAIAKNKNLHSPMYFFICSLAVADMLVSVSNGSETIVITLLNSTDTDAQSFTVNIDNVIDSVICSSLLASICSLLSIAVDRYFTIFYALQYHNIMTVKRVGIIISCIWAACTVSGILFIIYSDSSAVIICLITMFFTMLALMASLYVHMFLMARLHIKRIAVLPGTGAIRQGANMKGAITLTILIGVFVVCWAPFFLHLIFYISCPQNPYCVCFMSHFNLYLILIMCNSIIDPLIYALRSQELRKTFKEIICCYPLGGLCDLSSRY

[6] = Table 9A/9B, read-out: EC50 hMC5-R
[7] = Table 9A/9B, read-out: EC50 hMC1-R
[8] = Table 9A/9B, read-out: EC50 hMC3-R
[9] = Table 9A/9B, read-out: EC50 hMC4-R

Row | SMILES | EC50 [2, 6] | EC50 [3, 7] | EC50 [4, 8] | EC50 [5, 9] | EC50 [2] | also measured
1 | CC(=O)N[C@H]1CSSC[C@@H](C(=O)N2CCC[C@H]2C(=O)N2CCC[C@H]2C(=O)N[C@@H](CCCNC(=N)N)C(=O)N[C@@H](CC(=O)O)C(=O)NCCC(=O)N[C@@H](CCCNC(=N)N)C(=O)N[C@@H](CCCNC(=N)N)C(=O)N[C@@H](CCCNC(=N)N)C(=O)N[C@@H](CCCNC(=N)N)C(=O)N[C@@H](CCCNC(=N)N)C(=O)N[C@@H](CCC(N)=O)C(=O)N[C@@H](CCCNC(=N)N)C(=O)N[C@@H](CCCNC(=N)N)C(=O)N[C@@H](CCCNC(=N)N)C(N)=O)NC(=O)[C@H](C)NC(=O)[C@H](Cc2csc3ccccc23)NC(=O)[C@H](CCCNC(=N)N)NC(=O)[C@@H](Cc2ccc3ccccc3c2)NC(=O)[C@H](Cc2c[nH]cn2)NC(=O)[C@H](CCC(=O)O)NC1=O |  |  |  |  | > 10000 nM | Ki ([1]; Ki hMC5-R, Table 6): 48.3 nM; EC50 [3]: 38.3 nM; Kb [4]: 20.2 nM; Kb [5]: 21.2 nM
2 | CC(=O)N[C@H]1CSSC[C@@H](C(=O)N2CCC[C@H]2C(=O)N2CCC[C@H]2C(=O)N[C@@H](CCCCN)C(=O)N[C@@H](CC(=O)O)C(=O)NCCC(=O)NCC(=O)N[C@@H](CCCNC(=N)N)C(=O)N[C@@H](CCCCN)C(=O)N[C@@H](CCCNC(=N)N)C(=O)N[C@@H](CCCNC(=N)N)C(=O)N[C@@H](CCCNC(=N)N)C(=O)N[C@@H](CCC(N)=O)C(=O)N[C@@H](CCCNC(=N)N)C(=O)N[C@@H](CCCNC(=N)N)C(=O)N[C@@H](CCCNC(=N)N)C(N)=O)NC(=O)[C@H](C)NC(=O)[C@H](Cc2csc3ccccc23)NC(=O)[C@H](CCCNC(=N)N)NC(=O)[C@@H](Cc2ccc3ccccc3c2)NC(=O)[C@H](Cc2c[nH]cn2)NC(=O)[C@H](CCC(=O)O)NC1=O |  |  |  |  | 194 nM | Ki ([1]; Ki hMC5-R, Table 6): 15.5 nM; EC50 [3]: 32.2 nM; Kb [4]: 98.3 nM; Kb [5]: 5.23 nM
3 | CC(=O)N[C@H]1CSSC[C@@H](C(=O)N2CCC[C@H]2C(=O)N2CCC[C@H]2C(=O)N[C@@H](CCCCN)C(=O)N[C@@H](CC(=O)O)C(=O)NCCC(=O)N[C@@H](CCCNC(=N)N)C(=O)N[C@@H](CCCCN)C(=O)N[C@@H](CCCNC(=N)N)C(=O)N[C@@H](CCCNC(=N)N)C(=O)N[C@@H](CCCNC(=N)N)C(=O)N[C@@H](CCC(N)=O)C(=O)N[C@@H](CCCNC(=N)N)C(=O)N[C@@H](CCCNC(=N)N)C(=O)N[C@@H](CCCNC(=N)N)C(N)=O)NC(=O)[C@H](C)NC(=O)[C@H](Cc2csc3ccccc23)NC(=O)[C@H](CCCNC(=N)N)NC(=O)[C@@H](Cc2ccc3ccccc3c2)NC(=O)[C@H](Cc2c[nH]cn2)NC(=O)[C@H](CCC(=O)O)NC1=O |  |  |  |  | 100 nM | Ki ([1]; Ki hMC5-R, Table 6): 15.5 nM; EC50 [3]: 19.1 nM; Kb [4]: 106 nM; Kb [5]: 4.59 nM
4 | CC(=O)N[C@H](CCCNC(=N)N)C(=O)N[C@H]1CSSC[C@@H](C(N)=O)NC(=O)[C@H](Cc2c[nH]c3ccccc23)NC(=O)[C@H](CCCNC(=N)N)NC(=O)[C@@H](Cc2ccccc2)NC(=O)[C@H](Cc2c[nH]cn2)NC(=O)[C@@H](C)NC1=O [Ac-D-Arg-c(Cys-D-Ala-His-D-Phe-Arg-Trp-Cys)-NH2] |  |  |  |  | 1020 nM | Ki ([1]; Ki hMC5-R, Table 5): 352 nM
5 | CCCC[C@H](NC(C)=O)C(=O)N[C@H]1CC(=O)NCCCC[C@@H](C(N)=O)NC(=O)[C@H](Cc2csc3ccccc23)NC(=O)[C@H](CCCNC(=N)N)NC(=O)[C@@H](Cc2ccccc2)NC(=O)[C@H](Cc2c[nH]cn2)NC(=O)[C@@H](C)NC1=O [Ac-Nle-c(Asp-D-Ala-His-D-Phe-Arg-Bal-Lys)-NH2] (Ac-[Nle]D[dA]H[dF]R[Bta]K-NH2; lactam 2-8) | > 10000 nM | 0.931 nM | 3.22 nM | 1.65 nM |  | 
6 | CCCC[C@H](NC(C)=O)C(=O)N[C@H]1CSSC[C@@H](C(N)=O)NC(=O)[C@H](Cc2c[nH]c3ccccc23)NC(=O)[C@H](CCCNC(=N)N)NC(=O)[C@@H](Cc2ccccc2)NC(=O)[C@H](Cc2c[nH]cn2)NC(=O)[C@@H](CC(C)C)NC1=O [Ac-Nle-c(Cys-D-Leu-His-D-Phe-Arg-Trp-Cys)-NH2] | 78.5 nM | 3.24 nM | 0.465 nM | 0.0915 nM |  | 
7 | CC(=O)N[C@H]1CSSC[C@@H](C(N)=O)NC(=O)[C@H](C)NC(=O)[C@H](Cc2c[nH]c3ccccc23)NC(=O)[C@H](CCCNC(=N)N)NC(=O)[C@@H](Cc2ccccc2)NC(=O)[C@H](Cc2c[nH]cn2)NC(=O)[C@@H](C)NC1=O [Ac-c(Cys-D-Ala-His-D-Phe-Arg-Trp-Ala-Cys)-NH2] (Ac-C[dA]H[dF]RWAC-NH2; disulfide 1-8 (inferred)) |  |  |  |  |  | Ki ([1]; Table 5, read-out: Ki hMC5-R): > 10000 nM
8 | CC(=O)N[C@@H](CCC1CCCCC1)C(=O)N[C@H]1CC(=O)NCCCC[C@@H](C(N)=O)NC(=O)CCCNC(=O)[C@H](Cc2c[nH]c3ccccc23)NC(=O)[C@H](CCCNC(=N)N)NC(=O)[C@@H](Cc2ccccc2)NC(=O)[C@H](Cc2c[nH]cn2)NC1=O [Ac-hCha-c(Asp-His-D-Phe-Arg-Trp-Gaba-Lys)-NH2] | 415 nM | 2.27 nM | 3.32 nM | 7.24 nM |  | 
9 | N=C(N)NCCC[C@@H]1NC(=O)[C@@H](Cc2ccccc2)NC(=O)[C@H](Cc2c[nH]cn2)NC(=O)[C@H](CCC(=O)O)NC(=O)[C@@H](NC(=O)CN2C(=O)N[C@@H](CCCNC(=N)N)C2=O)CSSC[C@@H](C(N)=O)NC(=O)[C@H](Cc2c[nH]c3ccccc23)NC1=O [Hydantoin(C(O)-(Arg-Gly))-c(Cys-Glu-His-D-Phe-Arg-Trp-Cys)-NH2] |  |  |  |  |  | EC50 ([2]; Table 11, read-out: EC50 hMC5): 4010 nM; EC50 ([3]; Table 11, read-out: EC50 hMC1): 8.83 nM; EC50 ([4]; Table 11, read-out: EC50 hMC3): 7.86 nM; EC50 ([5]; Table 11, read-out: EC50 hMC4): 0.0979 nM
10 | N=C(N)NCCC[C@@H]1NC(=O)[C@@H](Cc2ccccc2)NC(=O)[C@H](Cc2cnc[nH]2)NC(=O)[C@H](CCC(=O)O)NC(=O)[C@@H](NC(=O)[C@H](CCCNC(=N)N)N2C(=O)CNC2=O)CSSC[C@@H](C(N)=O)NC(=O)[C@H](Cc2c[nH]c3ccccc23)NC1=O [Hydantoin(C(O)-(Gly-Arg))-c(Cys-Glu-His-D-Phe-Arg-Trp-Cys)-NH2] |  |  |  |  |  | EC50 ([2]; Table 11, read-out: EC50 hMC5): 335 nM; EC50 ([3]; Table 11, read-out: EC50 hMC1): 9.97 nM; EC50 ([4]; Table 11, read-out: EC50 hMC3): 3.63 nM; EC50 ([5]; Table 11, read-out: EC50 hMC4): 0.0687 nM
11 | CCCC[C@@H]1NC(=O)N(CC(=O)N[C@H]2CSSC(C)(C)[C@@H](C(N)=O)NC(=O)[C@H](Cc3c[nH]c4ccccc34)NC(=O)[C@H](CCCNC(=N)N)NC(=O)[C@@H](Cc3ccccc3)NC(=O)[C@H](Cc3cnc[nH]3)NC(=O)[C@@H](C)NC2=O)C1=O [Hydantoin(C(O)-(Nle-Gly))-c(Cys-D-Ala-His-D-Phe-Arg-Trp-Pen)-NH2] |  |  |  |  | 352 nM | EC50 [3]: 17 nM; EC50 [4]: 21.5 nM; EC50 [5]: 0.584 nM

The next lines start with results.

Row | EC50 [2, 6] | EC50 [3, 7] | EC50 [4, 8] | EC50 [5, 9] | SMILES | EC50 [2] | also measured
12 | 3.48 nM | 1.37 nM | 0.628 nM | 0.131 nM | CCCC[C@H](NC(C)=O)C(=O)N[C@H]1CC(=O)NCCCC[C@@H](C(N)=O)NC(=O)CCCNC(=O)[C@H](Cc2c[nH]c3ccccc23)NC(=O)[C@H](CCCNC(=N)N)NC(=O)[C@@H](Cc2ccccc2)NC(=O)[C@H](Cc2c[nH]cn2)NC1=O [Ac-Nle-c(Asp-His-D-Phe-Arg-Trp-Gaba-Lys)-NH2] |  | 
13 | 2.79 nM | 0.834 nM | 0.145 nM | 0.128 nM | CCCC[C@H](NC(C)=O)C(=O)N[C@H]1CC(=O)NCCCC[C@@H](C(N)=O)NC(=O)CCNC(=O)[C@H](Cc2c[nH]c3ccccc23)NC(=O)[C@H](CCCNC(=N)N)NC(=O)[C@@H](Cc2ccccc2)NC(=O)[C@H](Cc2c[nH]cn2)NC1=O [Ac-Nle-c(Asp-His-D-Phe-Arg-Trp-β-Ala-Lys)-NH2] |  | 
14 | 1.73 nM | 0.76 nM | 0.199 nM | 0.0492 nM | CCCC[C@H](NC(C)=O)C(=O)N[C@H]1CSSC[C@@H](C(N)=O)NC(=O)CCCCNC(=O)[C@H](Cc2c[nH]c3ccccc23)NC(=O)[C@H](CCCNC(=N)N)NC(=O)[C@@H](Cc2ccccc2)NC(=O)[C@H](Cc2c[nH]cn2)NC1=O [Ac-Nle-c(Cys-His-D-Phe-Arg-Trp-Apn-Cys)-NH2] (Ac-[Nle]CH[dF]RW[Ava]C-NH2; disulfide 2-8) |  | 
15 | 3.9 nM | 0.28 nM | 0.24 nM | 0.028 nM | CCCC[C@H](NC(C)=O)C(=O)N[C@H]1CSSC(C)(C)[C@@H](C(N)=O)NC(=O)CCCNC(=O)[C@H](Cc2c[nH]c3ccccc23)NC(=O)[C@H](CCCNC(=N)N)NC(=O)[C@@H](Cc2ccccc2)NC(=O)[C@H](Cc2c[nH]cn2)NC1=O [Ac-Nle-c(Cys-His-D-Phe-Arg-Trp-Gaba-Pen)-NH2] (Ac-[Nle]CH[dF]RW[GABA][Pen]-NH2; disulfide 2-8) |  | 
16 | 3.1 nM | 0.31 nM | 0.27 nM | 0.018 nM | CCCC[C@H](N)C(=O)N[C@H]1CSSC[C@@H](C(N)=O)NC(=O)CCCCNC(=O)[C@H](Cc2c[nH]c3ccccc23)NC(=O)[C@H](CCCNC(=N)N)NC(=O)[C@@H](Cc2ccccc2)NC(=O)[C@H](Cc2c[nH]cn2)NC1=O [Nle-c(Cys-His-D-Phe-Arg-Trp-Apn-Cys)-NH2] (H-[Nle]CH[dF]RW[Ava]C-NH2; disulfide 2-8) |  | 
